Literature values, collected in patent US20260014110A1, “RETINOIC ACID-ALCOHOL AMINE COMPLEX, PREPARATION METHOD AND APPLICATION THEREOF” (NANJING INDETEK LABORATORY CO., LTD., priority 2022, published 2026).
Converted amounts (≈) assume the structure as drawn. Like-named read-outs stand apart in the source and are kept apart here.

## CC1=C(/C=C/C(C)=C/C=C/C(C)=C/C(=O)O)C(C)(C)CCC1 [retinoic acid]
Chinese Pharmacopoeia 2020, volume II
  solubility in water: extremely difficult to dissolve in water
Literature (Ascenso et al. 2011)
  solubility in water: 1.06 µM (≈ 0.318 µg/mL)
